Data on three compounds can be found in US6479079B1, “Anticalcification treatments for fixed biomaterials” (Sulzer Carbomedics Inc., priority 1999, dated 2002).

Data set [1] concerns glutaraldehyde-fixed bovine pericardium tissue. The experiment in a line: Calcium and phosphorus content after subcutaneous implantation in rats (Examples 2 and 3). Format: in vivo, Sprague-Dawley rats. Conditions: for Calcuim / Phosphorus: Bovine Pericardium, 60 days of implantation. The procedure: (§1) In a sterile hood, pieces of glutaraldehyde-fixed bovine pericardium tissue (Mitroflow Inc.; Richmond, British Columbia, Canada) porcine cusp tissue (Labcor; Belo Horizonte, Brazil) and porcine wall tissue (Labcor Inc.) were transferred into sterile tubes containing 1,2-octanediol solutions (5% […] (Aldrich Chemical), 40% ethanol and 55% 10 mM HEPES buffer). The tubes were transferred to a 37° C. incubator and maintained at 37° C. with gentle agitation for about 16 hours. After the treatment, the samples were transferred to solutions comprising 22% ethanol in 10 mM HEPES and stored for 14 days at 4° C. The final tissue to volume ratio for all treatments was approximately 27 ml/g.
(§2) For N-methyl pyrolidinone (NMP) treatments, pieces of glutaraldehyde-fixed bovine pericardium tissue (Mitroflow Inc.), porcine cusp tissue (Labcor Inc.) and porcine wall tissue (Labcor Inc.) were transferred into sterile tubes containing NMP. The tubes were incubated at room temperature for about 16 hours with occasional manual agitation. After the treatment, the tissue samples were transferred to 22% HEPES-buffered ethanol solutions and stored for 14 days at 4° C.
(§3) Samples treated with the 1,2-octanediol solutions and with NMP, as well as untreated samples of each tissue type, were provided to Charles Rivers Laboratories (Wilmington, Mass.) for implantation into rats. Seven rats per treatment group were analyzed. Prior to implantation, the tissue samples were rinsed for 3 minutes×3 in sterile PBS, accompanied by gentle agitation. The samples were implanted subcutaneously approximately 1 cm from the abdominal midline in 3 week old Sprague-Dawley rats and retrieved after 60 days of implantation. Unimplanted samples (one per tissue type per treatment) were used as unimplanted controls. After retrieval, the samples were analyzed for their calcium and phosphorus contents using a standard ICP methodology.
In a sterile hood, pieces of glutaraldehyde-fixed bovine pericardium tissue (Mitroflow Inc.) were transferred into sterile tubes containing a 45% solution of HEPES-buffered ethanol (45% ethanol, 55% 10 mM HEPES buffer). The tubes were transferred to a 37° C. incubator and maintained at 37° C. with gentle agitation for about 16 hours. After the treatment, the samples were transferred to fresh solution of 45% HEPES-buffered ethanol and stored for 14 days at room temperature (˜25° C.). The final tissue to volume ratio for all treatments was approximately 27 ml /g.
as §3, with “45% ethanol solution,” for “1,2-octanediol solutions and with NMP,”, “by ICP.” for “using a standard ICP methodology.”

The subject of another data set is porcine cusp tissue. Description: Calcium and phosphorus content after subcutaneous implantation in rats (Example 2). Format: in vivo, Sprague-Dawley rats. Conditions: 60 days of implantation. The procedure: as §1, §2, §3
The subject of a further data set is porcine wall tissue. The description is as above. In kind it is in vivo, Sprague-Dawley rats. The conditions noted are these: 60 days of implantation. The procedure:
as §1, §2, §3

Data set [2] can be described thus: Shrinkage temperature by differential scanning calorimetric analysis. In kind it is physicochemical, bovine. (DSC measures the heat that a sample takes up or gives off during a temperature scan.)
Description: The samples were then analyzed to evaluate the presence of extractable proteins and to determine shrinkage temperatures.
The shrinkage temperatures of the treated tissues were also determined using standard differential scanning calorimetric analysis. Typically, 2-10 mg of tissue was heated at the rate of 10° C. per minute under nitrogen atmosphere. The onset of the endotherm observed at about 60-90° C. is conventionally attributed to a shrinkage transition, and was used as the shrinkage temperature. An increase in the shrinkage temperature is an indication that cross-linking has occurred.
For these experiments, bovine pericardium samples were placed in 0.25% solutions of glutaraldehyde in PBS where they remained at room temperature for about 7 days. The cross-linked tissues were then subjected to either 1,2-octanediol or NMP treatments, as described above. The treated samples were then analyzed for extractable proteins and to determine shrinkage temperatures.
For data set [3], the system named is glutaraldehyde fixed bovine pericardium. The experiment in a line: Calcification after subcutaneous implantation in rats (Example 1). Format: in vivo, Sprague-Dawley rats. The conditions noted are these: alcohol treatment 24 hrs, retrieved after 60 days. The procedure:
Bovine pericardium was obtained fresh from the abattoir, trimmed to remove excess fat, and stored in a high osmolarity solution until use. Prior to fixation, the tissue was rinsed thoroughly in phosphate buffered saline (PBS) having a pH of 7.3-7.4. A 0.25% solution of glutaraldehyde was prepared by adding 2.5 ml of a 50% glutaraldehyde solution (Aldrich Chemical) to 500 ml using PBS. Fifteen 1 cm×1 cm samples of bovine pericardium tissue were added to the glutaraldehyde solution and the tube was stored at room temperature for 7 days.
In a sterile hood, glutaraldehyde fixed bovine pericardium pieces were washed with sterile PBS (3 washes, 10 minutes each). The samples were then immersed in a sterile filtered solution of 40% ethanol, 5% octanol, 55% water and treated for 24 hours at room temperature. The tissue was then washed with sterile PBS (3 washes, 10 minutes each), and in sterile filtered 45% ethanol in PBS for about 30 minutes. […]
The calcium content of the retrieved samples was determined by hydrolyzing the samples under acidic conditions and analyzing the digested samples using standard inductively coupled plasma (ICP) emission spectrophotometry. […] The resulting digested sample was diluted with water and analyzed using an ICP spectrophotometer (Varian Inc.; Liberty 100/200 ICP-OCS).

The mark [4] stands for this setting: treated at 37° C. about 16 hours (Example 3).

`CCCCCCC(O)CO` (centres unmarked) [1,2-octanediol]: the Calcuim in data set [1] is 3.4 μg/mg tissue; with porcine cusp tissue it was 44.1 μg/mg tissue; in the data set on porcine wall tissue, 106.4 μg/mg tissue. For the same compound, the Phosphorus in data set [1] amounted to 0 μg/mg tissue; in the data set with porcine cusp tissue, 21.9 μg/mg tissue; with porcine wall tissue, 53.0 μg/mg tissue.
Regarding `CN1CCCC1=O` [NMP, N-methyl pyrolidinone], in data set [2], the “effect on shrinkage temperature compared with untreated tissue” value is recorded as “no significant effect”. The “Shrink Temperature” value in data set [2] (glutaraldehyde 0.25% about 7 days, then post-fixation treatment) worked out at 85.6 °C. Moreover, the Calcuim in data set [1] is on record as 8.0 μg/mg tissue; with porcine cusp tissue, 14.7 μg/mg tissue; in the data set on porcine wall tissue it was 111.9 μg/mg tissue. Further, the Phosphorus is 3.4 μg/mg tissue in data set [1], 7.9 μg/mg tissue in the data set with porcine cusp tissue and 55.2 μg/mg tissue with porcine wall tissue. For the same compound, the “calcium and phosphorus levels of explanted tissues” value in data set [1] (all tissue types, most pronounced with bovine pericardium) is given as “significantly reduced”.
For `CCO` [45% EtOH, ethanol], in data set [3] (glutaraldehyde 0.25%, 14 days (45% EtOH) or 7 days (octanol), ICP), the Calcium worked out at 168 μg/mg dry tissue. In data set [3] (graded from 0 (none) to 5 (severe)), the “Average von Kossa Grading” value turned out to be 5. For the same compound, in data set [1] (setting [4]), the Calcuim was 3.4 μg/mg tissue and the Phosphorus was 0.0 μg/mg tissue. The “calcium and phosphorus levels compared with no anticalcification treatment” value in data set [1] (Example 3) is “significant reduction”.
